Experimental data as given in ChEMBL document CHEMBL3745675, “Design and optimization of selective azaindole amide M1 positive allosteric modulators” (Bioorg Med Chem Lett, 2016).

Tests used:
[1] = Cmax in Wistar Hann rat brain at 5 mg/kg, sc; type: ADME, organism-based; parameters: dose 5 mg/kg, route subcutaneous
[2] = AUC (0 to tlast) in Wistar Hann rat CSF at 5 mg/kg, sc; type: ADME, organism-based, Cerebrospinal fluid
[3] = Drug concentration in Wistar Hann rat CSF at 5 mg/kg, sc after 1 hr; type: ADME, organism-based, Cerebrospinal fluid; settings: read-out: Drug uptake
[4] = Ratio of drug level in CSF to plasma in Wistar Hann rat at 5 mg/kg, sc after 6 hrs; type: ADME, organism-based; settings: CSF and plasma
[5] = Ratio of unbound AUC in brain to plasma in Wistar Hann rat; type: ADME, organism-based; settings: read-out: Ratio AUC
[6] = Ratio of drug level in brain to plasma in Wistar Hann rat at 5 mg/kg, sc after 6 hrs; type: ADME, organism-based
[7] = Ratio drug level in brain to plasma in C57BL/6j mouse at 10 mg/kg, sc after 4 hrs; type: ADME, organism-based; settings: read-out: BPR
[8] = AUC (0 to infinity) in Wistar Hann rat plasma at 5 mg/kg, sc; type: ADME, organism-based; parameters: dose 5 mg/kg, time infinity, route subcutaneous
[9] = AUC in Wistar Hann rat at 2 mg/kg, po; type: ADME, organism-based; settings: in vivo
[10] = Intial plasma concentration in Wistar Hann rat at 0.5 mg/kg, iv; type: ADME, organism-based
[11] = Drug concentration in Wistar Hann rat CSF at 5 mg/kg, sc after 6 hrs; type: ADME, organism-based, Cerebrospinal fluid; settings: read-out: Drug uptake
[12] = Drug concentration in Wistar Hann rat brain at 5 mg/kg, sc after 1 hr; type: ADME, organism-based; settings: read-out: Drug uptake
[13] = AUC (0 to tlast) in Wistar Hann rat plasma at 5 mg/kg, sc; type: ADME, organism-based
Plasma [14] = experiment: Fraction unbound in Wistar Hann rat plasma; type: ADME, cell-free
[15] = Drug concentration in Wistar Hann rat plasma at 5 mg/kg, sc after 6 hrs; type: ADME, organism-based
[16] = Ratio of unbound AUC in CSF to plasma in Wistar Hann rat at 5 mg/kg, sc after 1 hr; type: ADME, organism-based; settings: CSF and plasma, read-out: Ratio AUC
[17] = Drug concentration in Wistar Hann rat CSF at 5 mg/kg, sc after 2 hrs; type: ADME, organism-based, Cerebrospinal fluid; settings: read-out: Drug uptake
[18] = Tmax in Wistar Hann rat brain at 5 mg/kg, sc; type: ADME, organism-based
[19] = Ratio of unbound AUC in CSF to plasma in Wistar Hann rat at 5 mg/kg, sc after 4 hrs; type: ADME, organism-based; settings: CSF and plasma, read-out: Ratio AUC
[20] = AUC (0 to tlast) in Wistar Hann rat brain at 5 mg/kg, sc; type: ADME, organism-based
[21] = Ratio of unbound AUC in CSF to plasma in Wistar Hann rat at 5 mg/kg, sc after 6 hrs; type: ADME, organism-based; settings: CSF and plasma, read-out: Ratio AUC
[22] = Drug concentration in Wistar Hann rat brain at 5 mg/kg, sc after 4 hrs; type: ADME, organism-based; settings: read-out: Drug uptake
Plasma [23] = experiment: Fraction unbound in C57BL/6j mouse plasma; type: ADME, cell-free
[24] = Ratio of drug level in brain to plasma in Wistar Hann rat at 5 mg/kg, sc after 4 hrs; type: ADME, organism-based
Plasma [25] = experiment: Fraction unbound in Wistar Hann rat plasma at 5 mg/kg, sc after 6 hrs; type: ADME, organism-based; settings: in vivo
[26] = Ratio of unbound AUC in CSF to plasma in Wistar Hann rat at 5 mg/kg, sc after 2 hrs; type: ADME, organism-based; settings: CSF and plasma, read-out: Ratio AUC
Plasma [27] = experiment: Fraction unbound in C57BL/6j mouse plasma at 10 mg/kg, sc after 1 hr; type: ADME, organism-based; settings: in vivo
[28] = Permeability in RRCK cells; type: ADME, cell-based, Canis lupus familiaris, MDCKII-LE; settings: dog, MDCK; read-out: permeability
[29] = Ratio of unbound AUC in brain to plasma in Wistar Hann rat at 5 mg/kg, sc after 2 hrs; type: ADME, organism-based; settings: brain and plasma, read-out: Ratio AUC
[30] = Ratio of drug level in CSF to plasma in Wistar Hann rat at 5 mg/kg, sc after 1 hr; type: ADME, organism-based; settings: CSF and plasma
[31] = Tmax in Wistar Hann rat plasma at 5 mg/kg, sc; type: ADME, organism-based
[32] = Ratio of unbound AUC in brain to plasma in C57BL/6j mouse; type: ADME, organism-based; settings: read-out: Ratio AUC
[33] = Drug concentration in Wistar Hann rat brain at 5 mg/kg, sc after 6 hrs; type: ADME, organism-based; settings: read-out: Drug uptake
[34] = Ratio drug level in brain to plasma in C57BL/6j mouse at 10 mg/kg, sc after 2 hrs; type: ADME, organism-based; settings: read-out: BPR
Plasma [35] = experiment: Fraction unbound in Wistar Hann rat plasma at 5 mg/kg, sc after 2 hrs; type: ADME, organism-based; settings: in vivo
[36] = Ratio of unbound AUC in brain to plasma in C57BL/6j mouse at […], sc after 1 hr; type: ADME, organism-based; settings: read-out: Ratio AUC

Work on `Cn1ccc(-c2ccc(Cn3cc(C(=O)N[C@H]4CCOC[C@@H]4O)c4ncccc43)cc2)n1` yielded a Cmax [1] of 453 ng/mL, an AUC(0-t) [2] of 240 ng·h/mL and a concentration at 1 h [3] of 133 nM. The Kp at 6 h [4] was 0.02, the Kp uu [5] was 0.15 and the Kp at 6 h [6] was 0.19. For the same compound, the Kp at 4 h [7] was 0.1, the AUC(0-inf) [8] was 13400 ng·h/mL and the AUC [9] was 4510 ng·h/mL. For the same compound, the C0 [10] was 535 ng/mL, the concentration at 6 h [11] was 54.3 nM and the concentration at 1 h [12] was 1050 nM. For the same compound, the AUC(0-t) [13] was 9400 ng·h/mL, the “Cp(f)” value (Plasma [14]) was 0.092 nM and the concentration at 6 h [15] was 2150 nM. It also gave a Kp uu at 1 h [16] of 0.29, a concentration at 2 h [17] of 144 nM and a Tmax [18] of 1 h. It also gave a Kp uu at 4 h [19] of 0.27, an AUC(0-t) [20] of 1830 ng·h/mL and a Kp uu at 6 h [21] of 0.27. For the same compound, the concentration at 4 h [22] was 681 nM, the “Cp(f)” value (Plasma [23]) was 0.027 nM and the Kp at 4 h [24] was 0.22. The “Cp(f)” value (Plasma [25]) was 197.5 nM, the Kp uu at 2 h [26] was 0.29 and the “Cp(f)” value (Plasma [27]) was 560 nM. The Papp [28] was 31.5 ×10⁻⁶ cm/s, the Kp uu at 2 h [29] was 0.13 and the Kp at 1 h [30] was 0.03. For the same compound, the Tmax [31] was 2 h, the Kp uu [32] was 0.2 and the concentration at 6 h [33] was 409 nM. For the same compound, the Kp at 2 h [34] was 0.06, the “Cp(f)” value (Plasma [35]) was 502 nM and the Kp uu at 1 h [36] was 0.1.
